Measured values reported in PubChem BioAssay AID306 (DTP/NCI, 2004).
Values joined by “and” are separate entries in the source; they are usually repeats but may differ in a detail not shown here. Equal entries are not always repeated. Toxic doses and inconclusive results are not listed.

System: BDF1 mice, L1210 Methyl-GAG-resistant leukemia, survival T/C
Test: NCI In Vivo Anticancer Drug Screen. Data for tumor model L1210 Leukemia resistant to Methyl-GAG; NSC 32946 (subcutaneous) in B6D2F1 (BDF1) mice
Details: endpoint: mean survival time, higher = longer survival
Experimental: The antitumor activity of compounds was measured in mice bearing transplantable tumors. Survival or tumor size were measured and the results are expressed as the measurement made in the treated group (T) divided by the measurement made in the vehicle treated control group (C). The tumor model used in this assay is L1210 Leukemia resistant to Methyl-GAG; NSC 32946 (subcutaneous) in B6D2F1 (BDF1) mice

[1] = dose: 1.6 mg/kg/injection, schedule: Q01DX Z (ip), vehicle: carboxymethylcellulose (CMC)
[2] = dose: 3.1 mg/kg/injection, schedule: Q01DX Z (ip), vehicle: carboxymethylcellulose (CMC)
[3] = dose: 6.25 mg/kg/injection, schedule: Q01DX Z (ip), vehicle: carboxymethylcellulose (CMC)
[4] = dose: 12.5 mg/kg/injection, schedule: Q01DX Z (ip), vehicle: carboxymethylcellulose (CMC)
[5] = dose: 25.0 mg/kg/injection, schedule: Q01DX Z (ip), vehicle: carboxymethylcellulose (CMC)
[6] = dose: 1.25 mg/kg/injection, schedule: Q01DX Z (ip), vehicle: carboxymethylcellulose (CMC)
[7] = dose: 2.5 mg/kg/injection, schedule: Q01DX Z (ip), vehicle: carboxymethylcellulose (CMC)
[8] = dose: 5.0 mg/kg/injection, schedule: Q01DX Z (ip), vehicle: carboxymethylcellulose (CMC)
[9] = dose: 12.5 mg/kg/injection, schedule: Q01DX Z (ip), vehicle: saline
[10] = dose: 25.0 mg/kg/injection, schedule: Q01DX Z (ip), vehicle: saline
[11] = dose: 9.4 mg/kg/injection, schedule: Q01DX Z (ip), vehicle: water
[12] = dose: 12.5 mg/kg/injection, schedule: Q01DX Z (ip), vehicle: water
[13] = dose: 18.8 mg/kg/injection, schedule: Q01DX Z (ip), vehicle: water
[14] = dose: 25.0 mg/kg/injection, schedule: Q01DX Z (ip), vehicle: water
[15] = dose: 37.5 mg/kg/injection, schedule: Q01DX Z (ip), vehicle: water
[16] = dose: 50.0 mg/kg/injection, schedule: Q01DX Z (ip), vehicle: water
[17] = dose: 62.5 mg/kg/injection, schedule: Q01DX Z (ip), vehicle: carboxymethylcellulose (CMC)
[18] = dose: 125.0 mg/kg/injection, schedule: Q01DX Z (ip), vehicle: carboxymethylcellulose (CMC)
[19] = dose: 500.0 mg/kg/injection, schedule: Q01DX Z (ip), vehicle: carboxymethylcellulose (CMC)
[20] = dose: 50.0 mg/kg/injection, schedule: Q01DX Z (ip), vehicle: carboxymethylcellulose (CMC)
[21] = dose: 7.5 mg/kg/injection, schedule: Q01DX Z (ip), vehicle: carboxymethylcellulose (CMC)
[22] = dose: 15.0 mg/kg/injection, schedule: Q01DX Z (ip), vehicle: carboxymethylcellulose (CMC)
[23] = dose: 30.0 mg/kg/injection, schedule: Q01DX Z (ip), vehicle: carboxymethylcellulose (CMC)

CN(C)c1ccc(Nc2c3ccccc3nc3ccccc23)cc1
T/C [1]: 105 % of control | T/C [2]: 99 % of control | T/C [3]: 100 % of control | T/C [4]: 103 % of control | T/C [5]: 115 % of control | T/C (dose: 200.0 mg/kg/injection, schedule: Q01DX Z (ip), vehicle: carboxymethylcellulose (CMC)): 91 % of control

NC(Cc1ccc(N(CCCl)CCCl)cc1)C(=O)O (stereo unspecified)
T/C [6]: 104 % of control | T/C [7]: 106 % of control | T/C (dose: 3.2 mg/kg/injection, schedule: Q01DX Z (ip), vehicle: saline): 94 % of control | T/C [8]: 106 % of control | T/C (dose: 6.3 mg/kg/injection, schedule: Q01DX Z (ip), vehicle: saline): 118 % of control | T/C (dose: 10.0 mg/kg/injection, schedule: Q01DX Z (ip), vehicle: carboxymethylcellulose (CMC)): 120 % of control | T/C [9]: 113 % of control | T/C (dose: 20.0 mg/kg/injection, schedule: Q01DX Z (ip), vehicle: carboxymethylcellulose (CMC)): 98 % of control | T/C [10]: 94 % of control

O=C(Nc1ccc(C2=NCCN2)cc1)c1cccc(C(=O)Nc2ccc(C3=NCCN3)cc2)c1
T/C (dose: 1.2 mg/kg/injection, schedule: Q01DX Z (ip), vehicle: water): 102 % of control | T/C (dose: 2.4 mg/kg/injection, schedule: Q01DX Z (ip), vehicle: water): 108 % of control | T/C [11]: 211 % of control | T/C [12]: 223 % of control | T/C [13]: 226 % of control | T/C [14]: 236 % of control | T/C (dose: 37.5 mg/kg/injection, schedule: Q01DX Z (ip), vehicle: carboxymethylcellulose (CMC)): 202 % of control | T/C [15]: 287 % of control | T/C [16]: 113 % of control | T/C (dose: 75.0 mg/kg/injection, schedule: Q01DX Z (ip), vehicle: carboxymethylcellulose (CMC)): 224 % of control | T/C (dose: 150.0 mg/kg/injection, schedule: Q01DX Z (ip), vehicle: carboxymethylcellulose (CMC)): 247 % of control

O=c1[nH]c(=O)n(C2CC(O)C(CO)O2)cc1I (stereo unspecified)
T/C [17]: 118 % of control | T/C [18]: 112 % of control | T/C [19]: 117 % of control

CC(=O)O[C@]1(C(C)=O)CC[C@H]2[C@@H]3C[C@H](C)C4=CC(=O)C=C[C@]4(C)[C@@]3(F)[C@@H](O)C[C@@]21C
T/C (dose: 10.0 mg/kg/injection, schedule: Q01DX Z (sc), vehicle: steriod suspending solution): 102 % of control | T/C (dose: 20.0 mg/kg/injection, schedule: Q01DX Z (sc), vehicle: steriod suspending solution): 105 % of control | T/C (dose: 40.0 mg/kg/injection, schedule: Q01DX Z (sc), vehicle: steriod suspending solution): 121 % of control | T/C (dose: 80.0 mg/kg/injection, schedule: Q01DX Z (sc), vehicle: steriod suspending solution): 114 % of control | T/C (dose: 160.0 mg/kg/injection, schedule: Q01DX Z (sc), vehicle: steriod suspending solution): 121 % of control | T/C (dose: 320.0 mg/kg/injection, schedule: Q01DX Z (sc), vehicle: steriod suspending solution): 115 % of control

O=CCC(O)C(O)C(O)CO (stereo unspecified)
T/C [17]: 98 % of control | T/C [18]: 103 % of control | T/C (dose: 250.0 mg/kg/injection, schedule: Q01DX Z (ip), vehicle: carboxymethylcellulose (CMC)): 101 % of control | T/C [19]: 119 % of control | T/C (dose: 1000.0 mg/kg/injection, schedule: Q01DX Z (ip), vehicle: carboxymethylcellulose (CMC)): 108 % of control | T/C (dose: 2000.0 mg/kg/injection, schedule: Q01DX Z (ip), vehicle: carboxymethylcellulose (CMC)): 90 % of control

S=P(N1CCOCC1)(N1CC1)N1CC1
T/C [4]: 104 % of control | T/C [5]: 102 % of control

C[C@@H]1C[C@@H]([C@H](O)CC2CC(=O)NC(=O)C2)C(=O)[C@@H](C)C1
T/C [11]: 90 % of control | T/C [12]: 114 % of control and 122 % of control (2×) | T/C [13]: 93 % of control | T/C [14]: 156 % of control | T/C [15]: 124 % of control | T/C [16]: 108 % of control

CCOC(N)=O
T/C (dose: 125.0 mg/kg/injection, schedule: Q01DX Z (ip), vehicle: saline): 99 % of control | T/C (dose: 250.0 mg/kg/injection, schedule: Q01DX Z (ip), vehicle: saline): 89 % of control | T/C (dose: 500.0 mg/kg/injection, schedule: Q01DX Z (ip), vehicle: saline): 101 % of control | T/C (dose: 1000.0 mg/kg/injection, schedule: Q01DX Z (ip), vehicle: saline): 90 % of control

Nc1ncnc2[nH]ncc12
T/C (dose: 0.8 mg/kg/injection, schedule: Q01DX Z (ip), vehicle: carboxymethylcellulose (CMC)): 102 % of control | T/C [1]: 100 % of control | T/C [2]: 104 % of control | T/C [3]: 106 % of control | T/C [4]: 102 % of control | T/C [5]: 90 % of control | T/C [20]: 93 % of control and 96 % of control

CN(N=O)C(=O)NC(C=O)C(O)C(O)C(O)CO (stereo unspecified)
T/C [9]: 101 % of control | T/C [10]: 106 % of control and 113 % of control | T/C (dose: 50.0 mg/kg/injection, schedule: Q01DX Z (ip), vehicle: saline): 105 % of control and 110 % of control | T/C (dose: 100.0 mg/kg/injection, schedule: Q01DX Z (ip), vehicle: saline): 160 % of control | T/C (dose: 200.0 mg/kg/injection, schedule: Q01DX Z (ip), vehicle: saline): 90 % of control

[I][Hg][CH2]C1COC([CH2][Hg][I])CO1 (stereo unspecified)
T/C (dose: 1.9 mg/kg/injection, schedule: Q01DX Z (ip), vehicle: carboxymethylcellulose (CMC)): 102 % of control | T/C (dose: 3.75 mg/kg/injection, schedule: Q01DX Z (ip), vehicle: carboxymethylcellulose (CMC)): 95 % of control | T/C [21]: 102 % of control | T/C [22]: 113 % of control | T/C [23]: 150 % of control | T/C (dose: 60.0 mg/kg/injection, schedule: Q01DX Z (ip), vehicle: carboxymethylcellulose (CMC)): 107 % of control

CCN(CC)c1ccc2cc3ccc(=[N+](CC)CC)cc-3oc2c1
T/C (dose: 0.08 mg/kg/injection, schedule: Q01DX Z (ip), vehicle: carboxymethylcellulose (CMC)): 117 % of control | T/C (dose: 0.16 mg/kg/injection, schedule: Q01DX Z (ip), vehicle: carboxymethylcellulose (CMC)): 95 % of control | T/C (dose: 0.31 mg/kg/injection, schedule: Q01DX Z (ip), vehicle: carboxymethylcellulose (CMC)): 91 % of control | T/C (dose: 0.32 mg/kg/injection, schedule: Q01DX Z (ip), vehicle: carboxymethylcellulose (CMC)): 103 % of control | T/C (dose: 0.63 mg/kg/injection, schedule: Q01DX Z (ip), vehicle: carboxymethylcellulose (CMC)): 91 % of control | T/C [6]: 87 % of control | T/C [7]: 91 % of control | T/C [8]: 95 % of control

CSc1ncnc2c1ncn2C1OC(CO)C(O)C1O (stereo unspecified)
T/C [3]: 102 % of control | T/C [4]: 107 % of control | T/C [20]: 97 % of control

O=NN(CCCl)C(=O)NCCCl
T/C (dose: 1.0 mg/kg/injection, schedule: Q01DX Z (ip), vehicle: saline): 122 % of control | T/C (dose: 2.0 mg/kg/injection, schedule: Q01DX Z (ip), vehicle: saline): 155 % of control | T/C (dose: 4.0 mg/kg/injection, schedule: Q01DX Z (ip), vehicle: saline): 202 % of control | T/C (dose: 8.0 mg/kg/injection, schedule: Q01DX Z (ip), vehicle: saline): 172 % of control | T/C (dose: 16.0 mg/kg/injection, schedule: Q01DX Z (ip), vehicle: saline): 92 % of control | T/C (dose: 32.0 mg/kg/injection, schedule: Q01DX Z (ip), vehicle: saline): 92 % of control

CCCCCCCCCCCCNCCCCCCCCCCCC
T/C [21]: 94 % of control | T/C [22]: 101 % of control | T/C [23]: 103 % of control

NC(=O)c1ccc(N)nc1
T/C (dose: 0.31 mg/kg/injection, schedule: Q01DX Z (ip), vehicle: saline): 106 % of control | T/C (dose: 0.31 mg/kg/injection, schedule: Q01DX Z (ip), vehicle: water): 102 % of control | T/C (dose: 0.63 mg/kg/injection, schedule: Q01DX Z (ip), vehicle: saline): 101 % of control | T/C (dose: 0.63 mg/kg/injection, schedule: Q01DX Z (ip), vehicle: water): 115 % of control | T/C (dose: 1.25 mg/kg/injection, schedule: Q01DX Z (ip), vehicle: saline): 98 % of control
